One data set concerns the target Rhesus PDE2A3 (Macaca mulatta, UniProt B3VTJ2). The experiment in a line: PDE2 fluorescence polarization (IMAP FP) inhibition assay, rhesus PDE2A3. Type of data set: biochemical, rhesus macaque.
Another data set has as its target human PDE2A1 (Homo sapiens (Human), UniProt O00408). Nature of the data set: PDE2 IMAP FP inhibition assay, human PDE2A1 (selectivity panel format). Type of data set: biochemical. The method in brief: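 Enzyme dosed to give about 20% substrate turnover acts for 60 min at room temperature on 50 nM FAM-cAMP plus 1000 nM cGMP (Tris pH 7.2, MgCl2, DTT, Tween-20 buffer). IMAP binding solution then stops the reaction; after 1 h, polarization is measured from parallel and perpendicular fluorescence.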

A further data set has as its target P-glycoprotein (P-gp) (Homo sapiens (Human), UniProt P08183). Nature of the data set: P-gp transport, experimental BA/AB ratio, human. Format: in vitro ADME. The note with it: LLC-PK1, 1 μM substrate concentration. The source says: (§1) See Doan et al. “Passive permeability and P-glycoprotein-mediated efflux differentiate central nervous system (CNS) and non-CNS marketed drugs”, J. Pharm. Exper. […] Desirable human BA/AB ratio is less than 2.0. […] See, for example, Desai, et al. Integration of in Silico and in Vitro Tools for Scaffold Optimization during Drug Discovery: Predicting P-glycoprotein Efflux” Mol. Pharmac.

Data set [1] addresses P-glycoprotein (P-gp, rat Mdr1a) (Rattus norvegicus, UniProt Q6PSM0). Nature of the data set: P-gp transport, experimental BA/AB ratio, rat LLC-Mdr1a. Format: in vitro ADME. The note with it: LLC-PK1; rat LLC-Mdrla; 1 μM substrate concentration.
From the text: as §1

[2] abbreviates: Lab A, read-out: Rhesus PDE2 Ki (nM) - Lab A.
[3] abbreviates: Lab A, read-out: Human PDE2 Ki (nM) - Lab A.
[4] abbreviates: Lab B, read-out: Rhesus PDE2 Ki (nM) - Lab B.
Where [5] appears, read: Lab B, read-out: Human PDE2 Ki (nM) - Lab B.

Like-named read-outs stand apart in the source and are kept apart here.

Rhesus PDE2A3, sequence (B3VTJ2 1-941): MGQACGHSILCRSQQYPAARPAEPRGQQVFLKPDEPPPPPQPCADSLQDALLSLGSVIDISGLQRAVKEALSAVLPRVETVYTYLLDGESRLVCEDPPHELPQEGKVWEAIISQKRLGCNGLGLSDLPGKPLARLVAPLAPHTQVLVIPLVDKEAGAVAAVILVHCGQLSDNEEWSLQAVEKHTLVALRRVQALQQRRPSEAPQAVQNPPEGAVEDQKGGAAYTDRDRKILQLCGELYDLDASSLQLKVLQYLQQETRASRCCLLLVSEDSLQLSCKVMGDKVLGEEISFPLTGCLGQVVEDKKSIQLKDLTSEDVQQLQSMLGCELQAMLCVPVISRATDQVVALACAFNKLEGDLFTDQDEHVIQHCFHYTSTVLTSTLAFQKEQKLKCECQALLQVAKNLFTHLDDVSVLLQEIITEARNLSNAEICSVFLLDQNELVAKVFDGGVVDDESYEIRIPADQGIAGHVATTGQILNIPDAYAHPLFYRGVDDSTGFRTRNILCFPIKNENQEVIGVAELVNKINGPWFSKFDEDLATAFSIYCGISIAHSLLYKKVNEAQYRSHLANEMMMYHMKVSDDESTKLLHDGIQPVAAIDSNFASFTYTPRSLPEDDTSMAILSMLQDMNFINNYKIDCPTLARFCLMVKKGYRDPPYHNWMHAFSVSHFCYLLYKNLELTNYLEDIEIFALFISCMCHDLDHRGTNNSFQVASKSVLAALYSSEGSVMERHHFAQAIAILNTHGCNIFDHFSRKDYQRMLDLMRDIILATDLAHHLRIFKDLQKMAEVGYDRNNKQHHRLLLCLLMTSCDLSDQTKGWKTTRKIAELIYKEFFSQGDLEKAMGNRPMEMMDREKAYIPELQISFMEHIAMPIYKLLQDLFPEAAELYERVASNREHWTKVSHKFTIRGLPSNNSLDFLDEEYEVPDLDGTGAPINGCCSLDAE
human PDE2A1, sequence (O00408 other isoform, or with tags, fused parts or gaps): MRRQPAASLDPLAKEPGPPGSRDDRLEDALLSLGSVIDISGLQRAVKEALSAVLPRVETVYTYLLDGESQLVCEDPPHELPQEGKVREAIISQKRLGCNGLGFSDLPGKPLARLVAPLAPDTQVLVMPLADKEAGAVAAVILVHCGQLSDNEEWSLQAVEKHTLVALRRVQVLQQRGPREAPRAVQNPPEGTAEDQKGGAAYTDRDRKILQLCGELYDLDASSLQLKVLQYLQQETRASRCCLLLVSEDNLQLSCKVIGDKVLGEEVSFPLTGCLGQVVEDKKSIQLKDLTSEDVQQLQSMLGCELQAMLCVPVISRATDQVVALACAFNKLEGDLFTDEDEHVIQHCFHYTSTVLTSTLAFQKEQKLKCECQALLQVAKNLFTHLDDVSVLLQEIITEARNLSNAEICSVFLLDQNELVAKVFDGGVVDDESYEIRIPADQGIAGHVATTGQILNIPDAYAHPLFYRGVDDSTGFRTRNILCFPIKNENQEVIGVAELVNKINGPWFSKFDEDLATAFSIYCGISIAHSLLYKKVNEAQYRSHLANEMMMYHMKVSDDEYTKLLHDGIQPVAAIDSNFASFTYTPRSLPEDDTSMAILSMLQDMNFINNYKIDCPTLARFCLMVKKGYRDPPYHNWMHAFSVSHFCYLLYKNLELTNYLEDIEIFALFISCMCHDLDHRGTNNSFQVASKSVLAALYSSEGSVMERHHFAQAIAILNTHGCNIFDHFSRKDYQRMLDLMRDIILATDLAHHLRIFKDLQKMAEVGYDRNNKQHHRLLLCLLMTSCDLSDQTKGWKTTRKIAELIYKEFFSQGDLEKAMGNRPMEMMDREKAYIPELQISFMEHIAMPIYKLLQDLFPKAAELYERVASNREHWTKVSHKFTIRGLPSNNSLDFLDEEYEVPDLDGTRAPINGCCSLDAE
P-glycoprotein (P-gp), sequence (P08183 whole entry): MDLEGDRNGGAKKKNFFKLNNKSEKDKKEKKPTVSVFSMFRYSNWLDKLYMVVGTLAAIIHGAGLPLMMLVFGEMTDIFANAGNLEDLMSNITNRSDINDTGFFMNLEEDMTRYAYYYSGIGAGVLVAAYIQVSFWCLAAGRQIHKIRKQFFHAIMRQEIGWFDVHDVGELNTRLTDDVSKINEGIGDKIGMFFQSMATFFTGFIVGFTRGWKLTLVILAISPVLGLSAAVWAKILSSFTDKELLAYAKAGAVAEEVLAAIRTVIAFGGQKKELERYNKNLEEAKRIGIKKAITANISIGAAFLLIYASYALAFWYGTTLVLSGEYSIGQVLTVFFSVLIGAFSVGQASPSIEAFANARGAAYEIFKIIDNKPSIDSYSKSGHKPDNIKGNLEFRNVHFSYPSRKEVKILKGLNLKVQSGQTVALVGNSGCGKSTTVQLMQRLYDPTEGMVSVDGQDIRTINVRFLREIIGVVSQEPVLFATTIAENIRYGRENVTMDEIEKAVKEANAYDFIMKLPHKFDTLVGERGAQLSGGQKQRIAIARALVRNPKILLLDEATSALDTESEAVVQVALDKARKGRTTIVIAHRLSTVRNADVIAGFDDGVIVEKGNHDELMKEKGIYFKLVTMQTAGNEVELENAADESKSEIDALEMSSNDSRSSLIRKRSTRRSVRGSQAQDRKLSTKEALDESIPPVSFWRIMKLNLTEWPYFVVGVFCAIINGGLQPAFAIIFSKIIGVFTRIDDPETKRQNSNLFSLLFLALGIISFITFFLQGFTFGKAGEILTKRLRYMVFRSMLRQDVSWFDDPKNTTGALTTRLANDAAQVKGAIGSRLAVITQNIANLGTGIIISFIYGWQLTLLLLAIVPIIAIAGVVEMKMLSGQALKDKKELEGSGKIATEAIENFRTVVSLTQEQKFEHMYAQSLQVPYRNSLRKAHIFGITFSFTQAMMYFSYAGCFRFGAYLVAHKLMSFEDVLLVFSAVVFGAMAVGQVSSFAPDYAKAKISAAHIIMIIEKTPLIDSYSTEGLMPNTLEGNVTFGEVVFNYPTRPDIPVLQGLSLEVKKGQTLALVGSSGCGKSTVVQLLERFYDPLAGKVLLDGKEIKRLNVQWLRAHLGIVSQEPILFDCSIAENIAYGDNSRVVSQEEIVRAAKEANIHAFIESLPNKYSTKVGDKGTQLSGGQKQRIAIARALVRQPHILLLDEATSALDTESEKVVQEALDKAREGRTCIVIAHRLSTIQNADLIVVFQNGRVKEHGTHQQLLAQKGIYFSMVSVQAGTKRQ
P-glycoprotein (P-gp, rat Mdr1a), sequence (Q6PSM0 1-1272): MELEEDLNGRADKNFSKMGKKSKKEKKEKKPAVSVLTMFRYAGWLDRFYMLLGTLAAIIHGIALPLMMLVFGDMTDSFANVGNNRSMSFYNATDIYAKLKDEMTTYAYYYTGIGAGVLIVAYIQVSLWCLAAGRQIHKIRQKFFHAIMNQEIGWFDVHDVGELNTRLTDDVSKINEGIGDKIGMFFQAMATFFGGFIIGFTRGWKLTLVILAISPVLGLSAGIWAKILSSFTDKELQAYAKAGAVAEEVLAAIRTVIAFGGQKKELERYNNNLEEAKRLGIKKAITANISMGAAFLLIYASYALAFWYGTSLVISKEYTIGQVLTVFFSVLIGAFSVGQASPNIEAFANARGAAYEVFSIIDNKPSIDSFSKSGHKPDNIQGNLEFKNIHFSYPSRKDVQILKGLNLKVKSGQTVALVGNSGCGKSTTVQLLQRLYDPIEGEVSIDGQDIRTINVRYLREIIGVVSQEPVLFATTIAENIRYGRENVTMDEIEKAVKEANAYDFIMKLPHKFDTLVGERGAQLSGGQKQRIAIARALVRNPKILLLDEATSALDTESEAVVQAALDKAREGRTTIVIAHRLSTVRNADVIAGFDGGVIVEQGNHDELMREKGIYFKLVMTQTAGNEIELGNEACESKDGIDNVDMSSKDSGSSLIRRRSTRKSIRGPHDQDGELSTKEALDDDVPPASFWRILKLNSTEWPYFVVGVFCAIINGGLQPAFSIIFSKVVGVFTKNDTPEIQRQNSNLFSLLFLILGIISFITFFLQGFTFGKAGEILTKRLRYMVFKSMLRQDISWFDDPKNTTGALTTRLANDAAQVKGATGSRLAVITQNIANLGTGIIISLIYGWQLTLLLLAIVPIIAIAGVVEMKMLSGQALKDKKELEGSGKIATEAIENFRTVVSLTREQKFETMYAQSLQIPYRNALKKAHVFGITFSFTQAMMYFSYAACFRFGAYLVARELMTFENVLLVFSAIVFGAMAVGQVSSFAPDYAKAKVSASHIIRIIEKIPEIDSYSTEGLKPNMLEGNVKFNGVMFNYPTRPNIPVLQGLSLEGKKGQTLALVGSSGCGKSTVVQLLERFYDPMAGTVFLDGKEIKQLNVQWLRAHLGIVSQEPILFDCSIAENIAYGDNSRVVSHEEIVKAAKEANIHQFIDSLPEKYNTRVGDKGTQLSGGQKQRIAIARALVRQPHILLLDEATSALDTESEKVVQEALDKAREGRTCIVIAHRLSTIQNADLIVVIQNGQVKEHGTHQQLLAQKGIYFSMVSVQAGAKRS

Usually Ki stands for the dissociation constant of the complex between target and ligand, obtained from inhibition or displacement. As a reminder, the efflux ratio is the permeability from basolateral to apical divided by that in the opposite direction, in the common usage. `CC[C@@H](NC(=O)c1cc(=O)[nH]c(N(C)C)n1)c1ccc(SC(F)(F)F)c(F)c1` [Example 98, 2-(dimethylamino)-N-[(1R)-1-{3-fluoro-4-[(trifluoromethyl)sulfanyl]phenyl}propyl]-6-oxo-1,6-dihydropyrimidine-4-carboxamide]: the Ki is 0.54 nM at Rhesus PDE2A3 (setting [2]) and 0.23 nM at human PDE2A1 (setting [3]). Further, the efflux ratio at 1 μM at P-glycoprotein (P-gp) is 0.4; in data set [1], 3.

Consider `CC(C)[C@@H](NC(=O)c1cc(=O)[nH]c(N)n1)c1ccc(SC(F)(F)F)c(F)c1` [Example 156, 2-amino-N-[(1R)-1-{3-fluoro-4-[(trifluoromethyl)sulfanyl]phenyl}-2-methylpropyl]-6-oxo-1,6-dihydropyrimidine-4-carboxamide], for which the inhibition constant (Ki) worked out at 24 nM on Rhesus PDE2A3 (setting [2]) and 10 nM on human PDE2A1 (setting [3]). In addition, the results for the efflux ratio at 1 μM (at P-glycoprotein (P-gp); in data set [1]) were 11.1 and 11.3, respectively.

On to `O=C(N[C@@H](c1ccc(C2CC2)cc1)C1CC1)c1cc(=O)[nH]c(N2CCCC2)n1` [Example 113, N-[(R)-cyclopropyl(4-cyclopropylphenyl)methyl]-6-oxo-2-pyrrolidine-1-yl-1,6-dihydropyrimidine-4-carboxamide], for which the Ki was 0.36 nM on Rhesus PDE2A3 (setting [2]), 0.65 nM on Rhesus PDE2A3 (setting [4]) and 0.63 nM at human PDE2A1 (setting [5]). Moreover, the efflux ratio at 1 μM came to 0.4 on P-glycoprotein (P-gp) and 3.9 in data set [1].

For `CN(C)c1nc(C(=O)N[C@@H](c2ccc(SC(F)(F)F)cc2)C(C)(C)C)cc(=O)[nH]1` [Example 103, 2-(dimethylamino)-N-[(1R)-2,2-dimethyl-1-{4-[(trifluoromethyl)sulfanyl]phenyl}propyl]-6-oxo-1,6-dihydropyrimidine-4-carboxamide], the Ki on Rhesus PDE2A3 (setting [4]) and on human PDE2A1 (setting [5]) was 0.12 nM each time. In addition, the efflux ratio at 1 μM amounted to 2.2 at P-glycoprotein (P-gp) and 8.2 in data set [1].

In the case of `CC(C)[C@@H](NC(=O)c1cc(=O)[nH]c(N(C)C)n1)c1ccc(C(C)(F)F)c(F)c1` [Example 77, N-{(1R)-1-[4-(1,1-difluoroethyl)-3-fluorophenyl]-2-methylpropyl}-2-(dimethylamino)-6-oxo-1,6-dihydropyrimidine-4-carboxamide], the figures for the Ki at Rhesus PDE2A3 (setting [4]) and on human PDE2A1 (setting [5]) were 0.21 nM and 0.19 nM, respectively. Moreover, the efflux ratio at 1 μM at P-glycoprotein (P-gp) was found to be 1.1; in data set [1], 7.3.

As for `CNc1nc(C(=O)N[C@H](C)c2ccc(C(F)(F)F)cc2)cc(=O)[nH]1` [Example 135, 2-(methylamino)-6-oxo-N-{(1R)-1-[4-(trifluoromethyl)phenyl]ethyl}-1,6-dihydropyrimidine-4-carboxamide], the results for the Ki at Rhesus PDE2A3 (setting [2]) and on human PDE2A1 (setting [3]) were 36 nM and 27 nM, respectively. The efflux ratio at 1 μM came out at 2.7 on P-glycoprotein (P-gp) and 11.4 in data set [1].

Take `CC(C)[C@@H](NC(=O)c1cc(=O)[nH]c(N2CC[C@H](F)C2)n1)c1ccc(SC(F)(F)F)c(F)c1` [Example 165, 2-[(3S)-3-fluoropyrrolidin-1-yl]-N-[(1R)-1-{3-fluoro-4-[(trifluoromethyl)sulfanyl]phenyl}-2-methylpropyl]-6-oxo-1,6-dihydropyrimidine-4-carboxamide]: the Ki at Rhesus PDE2A3 (setting [2]) was 0.33 nM; at Rhesus PDE2A3 (setting [4]), 0.5 nM; at human PDE2A1 (setting [5]), 0.45 nM. Also, the results for the efflux ratio at 1 μM (at P-glycoprotein (P-gp); in data set [1]) were 3.6 and 20.1, respectively.

Consider `CN(C)c1nc(C(=O)N[C@@H](c2ccc(S(F)(F)(F)(F)F)cc2)C2CC2)cc(=O)[nH]1` [Example 4, (R)—N-(cyclopropyl(4-(pentafluoro-λ^6-sulfanyl)phenyl)methyl)-2-(dimethylamino)-6-oxo-1,6-dihydropyrimidine-4-carboxamide], for which the inhibition constant Ki on Rhesus PDE2A3 (setting [4]) turned out to be 1.2 nM; on human PDE2A1 (setting [5]) it was 1 nM. The efflux ratio at 1 μM on P-glycoprotein (P-gp) came to 0.6; in data set [1] it was 3.1.

On to `CC(C)[C@@H](NC(=O)c1cc(=O)[nH]c(N(C)C)n1)c1ccc(C(F)(F)F)cc1` [Example 47, 2-(dimethylamino)-N-{(1R)-2-methyl-1-[4-(trifluoromethyl)phenyl]propyl}-6-oxo-1,6-dihydropyrimidine-4-carboxamide], for which the Ki at Rhesus PDE2A3 (setting [4]) stood at 0.43 nM; at human PDE2A1 (setting [5]) it was 0.44 nM. The efflux ratio at 1 μM came out at 0.6 on P-glycoprotein (P-gp) and 2.1 in data set [1].

For the compound `CN(C)c1nc(C(=O)N[C@@H](c2ccc(OC(F)(F)F)c(F)c2)C(C)(C)C)cc(=O)[nH]1` [Example 101, 2-(dimethylamino)-N-{(1R)-1-[3-fluoro-4-(trifluoromethoxy)phenyl]-2,2-dimethylpropyl}-6-oxo-1,6-dihydropyrimidine-4-carboxamide], the Ki at Rhesus PDE2A3 (setting [4]) stood at 0.14 nM; on human PDE2A1 (setting [5]), 0.12 nM. Moreover, the efflux ratio at 1 μM on P-glycoprotein (P-gp) turned out to be 1.7; in data set [1], 10.1.

`CN(C)c1nc(C(=O)N[C@@H](c2ccc(OC(F)(F)F)cc2)C(C)(C)C)cc(=O)[nH]1` [Example 100, 2-(dimethylamino)-N-{(1R)-2,2-dimethyl-1-[4-(trifluoromethoxy)phenyl]propyl}-6-oxo-1,6-dihydropyrimidine-4-carboxamide]: the results for the inhibition constant (Ki) at Rhesus PDE2A3 (setting [4]) and at human PDE2A1 (setting [5]) were 0.17 nM and 0.21 nM, respectively. For the same compound, the results for the efflux ratio at 1 μM (on P-glycoprotein (P-gp); in data set [1]) were 0.7 and 2.9, respectively.

Regarding `CN(C)c1nc(C(=O)N[C@@H](c2ccc(C(F)(F)F)cc2F)C(C)(C)C)cc(=O)[nH]1` [Example 37, 2-(dimethylamino)-N-{(1R)-1-[2-fluoro-4-(trifluoromethyl)phenyl]-2,2-dimethylpropyl}-6-oxo-1,6-dihydropyrimidine-4-carboxamide], the inhibition constant (Ki) on Rhesus PDE2A3 (setting [4]) amounted to 0.11 nM; on human PDE2A1 (setting [5]), 0.13 nM. Also, the efflux ratio at 1 μM on P-glycoprotein (P-gp) worked out at 1; in data set [1] it was 1.2.

Turning to `CN(C)c1nc(C(=O)N[C@@H](c2ccc(OC(F)F)c(F)c2)C2(C)CC2)cc(=O)[nH]1` [Example 55, N-[(R)-[4-(difluoromethoxy)-3-fluorophenyl](1-methylcyclopropyl)methyl]-2-(dimethylamino)-6-oxo-1,6-dihydropyrimidine-4-carboxamide], the Ki on Rhesus PDE2A3 (setting [4]) was 1.4 nM; on human PDE2A1 (setting [5]), 0.98 nM. Also, the efflux ratio at 1 μM is 0.6 at P-glycoprotein (P-gp) and 3.4 in data set [1].

In the case of `C[C@@H](NC(=O)c1cc(=O)[nH]c(N(C)C)n1)c1ccc(OC(F)(F)F)cc1` [Example 87, 2-(dimethylamino)-6-oxo-N-{(1R)-1-[4-(trifluoromethoxy)phenyl]ethyl}-1,6-dihydropyrimidine-4-carboxamide], the Ki turned out to be 1.1 nM at Rhesus PDE2A3 (setting [2]) and 0.74 nM on human PDE2A1 (setting [3]). Further, the efflux ratio at 1 μM at P-glycoprotein (P-gp) came out at 0.5; in data set [1], 2.2.

In the case of `CO[C@@H]1CCN(c2nc(C(=O)N[C@@H](c3ccc(C(F)(F)F)cc3)C(C)(C)C)cc(=O)[nH]2)C1` [Example 171, N-{(1R)-2,2-dimethyl-1-[4-(trifluoromethyl)phenyl]propyl}-2-[(3R)-3-methoxypyrrolidin-1-yl]-6-oxo-1,6-dihydropyrimidine-4-carboxamide], the inhibition constant (Ki) on human PDE2A1 (setting [5]) is 1.4 nM. Further, the efflux ratio at 1 μM turned out to be 3.1 at P-glycoprotein (P-gp) and 24.4 in data set [1].

Turning to `CC(C)(C)[C@@H](NC(=O)c1cc(=O)[nH]c(N)n1)c1ccc(C(F)(F)F)cc1` [Example 157, 2-amino-N-{(1R)-2,2-dimethyl-1-[4-(trifluoromethyl)phenyl]propyl}-6-oxo-1,6-dihydropyrimidine-4-carboxamide], at human PDE2A1 (setting [5]), the Ki stood at 6.3 nM. For the same compound, the values for the efflux ratio at 1 μM (on P-glycoprotein (P-gp); in data set [1]) were 13.9 and 34, respectively.

With `CO[C@H]1CCN(c2nc(C(=O)N[C@@H](c3ccc(C(F)(F)F)cc3)C(C)(C)C)cc(=O)[nH]2)C1` [Example 170, N-{(1R)-2,2-dimethyl-1-[4-(trifluoromethyl)phenyl]propyl}-2-[(3S)-3-methoxypyrrolidin-1-yl]-6-oxo-1,6-dihydropyrimidine-4-carboxamide], at human PDE2A1 (setting [5]), the Ki turned out to be 0.11 nM. The efflux ratio at 1 μM at P-glycoprotein (P-gp) came out at 5.6; in data set [1], 10.7.

As for `CN(C)c1nc(C(=O)N[C@@H](c2ccc(C(F)F)cc2)C2CC2)cc(=O)[nH]1` [Example 64, N-{(R)-cyclopropyl[4-(difluoromethyl)phenyl]methyl}-2-(dimethylamino)-6-oxo-1,6-dihydropyrimidine-4-carboxamide], the Ki on human PDE2A1 (setting [5]) amounted to 7.4 nM. For the same compound, the values for the efflux ratio at 1 μM (at P-glycoprotein (P-gp); in data set [1]) were 0.8 and 5.6, respectively.

`COCC1CCN(c2nc(C(=O)N[C@@H](c3ccc(C(F)(F)F)cc3)C(C)(C)C)cc(=O)[nH]2)C1` (single isomer, unassigned) [Example 176, (R)- or (S)-N-{(1R)-2,2-dimethyl-1-[4-(trifluoromethyl)phenyl]propyl}-2-[3-(methoxy-methyl)pyrrolidin-1-yl]-6-oxo-1,6-dihydro-pyrimidine-4-carboxamide]: the inhibition constant Ki at human PDE2A1 (setting [5]) is 0.38 nM. Also, the efflux ratio at 1 μM on P-glycoprotein (P-gp) is 5.4; in data set [1], 19.1.

The record behind these values is patent US10285989B2, “Pyrimidinone amide compounds as PDE2 inhibitors” (Merck Sharp & Dohme Corp., priority 2015, dated 2019).
